In brackets after ≈: the same amount, converted by molar mass.
Tests used:
[1] = Lymphocyte viability assay (LCV, MTT) on human PBL; format: cell-based; details: for viability: human MLR, MTT
Method: Preparation of human peripheral blood leukocyte (PBL) suspensions. Human peripheral blood suspensions were prepared from Leukotrap blood filters as follows: Leukotrap filters containing processed leukocytes from random, unrelated blood donors were obtained from the Indian River Blood Bank (Vero Beach, Fla.). Buffy-coat blood cell suspensions were recovered by reverse-flow phosphate-buffered saline purging and centrifugation for 15 minutes at 475× g. Buffy coats were removed, and 5 ml of the suspension was layered onto 5 ml of Histopaque gradient material. The Histopaque gradients were centrifuged at 475× g for 30 minutes. Lymphocytes were removed from the Histopaque-medium interface, and washed twice with 10 ml of PBS (Dulbecco's phosphate-buffered saline without CaCl2 and MgCl2.6H2 O). The final cell pellet was resuspended in TCM, and the cell concentration adjusted to 2×10^6 cells/ml.
(§1) Determination of mycalamide A toxicity. The toxicity of mycalamide A on murine splenocytes and human PBL was determined using a colorimetric assay, based on the ability of viable cells to convert the colorless tetrazolium salt, 3-(4,5-dimethylthiazol-2yl)-2,5-diphenyl tetrazolium bromide (MTT) to a colored formazan product and trypan blue exclusion. For the colorimetric assay, a volume of 0.075 ml of an MTT solution (550 μg/ml of MTT in TCM) was added to test and control wells containing one of the populations of splenocytes or test wells and incubated for 5-6 hours following the initial incubation period. Microtiter plates were centrifuged at 100× g, supernatants carefully removed, and a volume of 0.20 ml of isopropyl alcohol was added to each well to dissolve the formazan crystals. The absorbance at 570 nm was determined for each well using an ELISA plate reader. […] As an additional parameter of toxicity, wells containing cultured lymphocytes with various dilutions of mycalamide A were examined with trypan blue, and the percentage of dye-excluding (viable) cells was determined.

[2] = test system: murine splenocytes; assay: Lymphocyte viability assay (LCV, MTT) on murine splenocytes; format: cell-based; details: mitogen study, in words
Method: (§2) Preparation of splenocyte cell suspensions. […] The resulting supernatant was then transferred to another sterile centrifuge tube, and the cell concentration adjusted to 2×10^6 cells/ml dilution with TCM.
as §1

[3] = as above; format: cell-based; details: mouse, splenocytes
Method: as §2, §1

[4] = test system: murine CD4^+ T cells; assay: Activation of CD4+ T cells by PMA/mB7; format: cell-based, murine (BALB/c); details: in words
Method: (A) Costimulation of T cells with anti-CD3 mAb and mB7. […] (B) Costimulation of T cells with mB7 and PMA. […] All cultures were incubated for 48 hours and pulsed with 1 μCi [ ^3 H] thymidine/well for the last 6 hours of the incubation period to assay for T cell proliferation.
(A) Costimulation of T cells with anti-CD3 mAb and mB7. 2×10^5 purified BALB/c CD4^+ T lymphocytes were stimulated with the indicated concentrations of anti-CD3 mAb in the presence of medium (.largecircle.), 2×10^4 paraformaldehyde-fixed CHO-mB7 cells (.quadrature.), or 2×10^4 paraformaldehyde-fixed CHO-mB7 cells in the presence of 0.1 nM FK506 (.gradient.), 1 nM FK506 (Δ), or 10 nM FK506 ( ). (B) Costimulation of T cells with mB7 and PMA. 2×10^5 purified BALB/c CD4^+ T lymphocytes were stimulated with the indicated concentrations of PMA and either medium (.largecircle.), 2×10^4 paraformaldehyde-fixed CHO-mB7 cells (.quadrature.), or paraformaldehyde-fixed CHO-mB7 cells in the presence of 0.1 nM FK506 (.gradient.), 1 nM FK506 (Δ), or 10 nM FK506 ( ). All cultures were incubated for 48 hours and pulsed with 1 μCi [^3 H] thymidine/well for the last 6 hours of the incubation period to assay for T cell proliferation.
(A) Costimulation of T cells with anti-CD3 mAb and mB7. […]

Compound: C=C1CC(OC)(C(O)C(=O)NC2OCOC3C2OC(CC(O)CO)C(C)(C)C3OC)OC(C)C1C (centres unmarked) [Mycalamide A, mycalamide A]
- viability ([1]; 5.0 × 10^-1 μg/ml): 42%
- viability ([1]; 5.0 × 10^-2 μg/ml): 52%
- viability ([1]; 5.0 × 10^-3 μg/ml): 46%
- viability ([1]; 5.0 × 10^-4 μg/ml): 128%
- viability ([1]; 5.0 × 10^-5 μg/ml): 111%
- viability ([1]; 5.0 × 10^-6 μg/ml): 114%
- viability ([1]; 5.0 × 10^-7 μg/ml): 116%
- CC50 ([1]; read-out: TC50 (LCV)): 0.083 µg/mL (≈ 0.165 µM)
- toxicity by LCV assay ([2]; 5×10^-5 μg/ml): no toxicity
- toxicity to the cells ([2]; greater than 5×10^-5 μg/ml): toxic to the cells
- viability ([3]; MLR, 5.0 × 10^0 μg/ml, MTT, read-out: % Viability (LCV)): 0%
- viability ([3]; MLR, 5.0 × 10^1 μg/ml, MTT, read-out: % Viability (LCV)): 0%
- viability ([3]; MLR, 5.0 × 10^2 μg/ml, MTT, read-out: % Viability (LCV)): 0%
- viability ([3]; MLR, 5.0 × 10^-1 μg/ml, MTT, read-out: % Viability (LCV)): 55%
- viability ([3]; MLR, 5.0 × 10^-2 μg/ml, MTT, read-out: % Viability (LCV)): 79%
- viability ([3]; MLR, 5.0 × 10^-3 μg/ml, MTT, read-out: % Viability (LCV)): 66%
- viability ([3]; MLR, 5.0 × 10^-4 μg/ml, MTT, read-out: % Viability (LCV)): 62%
- viability ([3]; MLR, 5.0 × 10^-5 μg/ml, MTT, read-out: % Viability (LCV)): 63%
- viability ([3]; MLR, 5.0 × 10^-6 μg/ml, MTT, read-out: % Viability (LCV)): 83%
- viability ([3]; MLR, 5.0 × 10^-7 μg/ml, MTT, read-out: % Viability (LCV)): 71%
- viability ([3]; MLR, 5.0 × 10^-8 μg/ml, MTT, read-out: % Viability (LCV)): 100%
- viability ([3]; MLR, 5.0 × 10^-9 μg/ml, MTT, read-out: % Viability (LCV)): > 99%
- viability ([3]; MLR, 5.0 × 10^-10 μg/ml, MTT, read-out: % Viability (LCV)): > 99%
- viability ([3]; MLR, 5.0 × 10^-11 μg/ml, MTT, read-out: % Viability (LCV)): > 99%
- viability ([3]; MLR, 5.0 × 10^-12 μg/ml, MTT, read-out: % Viability (LCV)): > 99%
- viability ([3]; MLR, 5.0 × 10^-13 μg/ml, MTT, read-out: % Viability (LCV)): > 99%
- viability ([3]; MLR, 5.0 × 10^-14 μg/ml, MTT, read-out: % Viability (LCV)): > 99%
- viability ([3]; MLR, 5.0 × 10^-15 μg/ml, MTT, read-out: % Viability (LCV)): > 99%
- viability ([3]; MLR, 5.0 × 10^-16 μg/ml, MTT, read-out: % Viability (LCV)): > 99%
- viability ([3]; MLR, 5.0 × 10^-17 μg/ml, MTT, read-out: % Viability (LCV)): > 99%
- viability ([3]; MLR, 5.0 × 10^-18 μg/ml, MTT, read-out: % Viability (LCV)): > 99%
- viability ([3]; MLR, 5.0 × 10^-19 μg/ml, MTT, read-out: % Viability (LCV)): > 99%
- viability ([3]; mitogen study, 5.0 × 10^0 μg/ml, read-out: LCV, % viability): 1%
- viability ([3]; mitogen study, 5.0 × 10^1 μg/ml, read-out: LCV, % viability): 2%
- viability ([3]; mitogen study, 5.0 × 10^2 μg/ml, read-out: LCV, % viability): 3%
- viability ([3]; mitogen study, 5.0 × 10^-1 μg/ml, read-out: LCV, % viability): 4%
- viability ([3]; mitogen study, 5.0 × 10^-2 μg/ml, read-out: LCV, % viability): 3%
- viability ([3]; mitogen study, 5.0 × 10^-3 μg/ml, read-out: LCV, % viability): 3%
- viability ([3]; mitogen study, 5.0 × 10^-4 μg/ml, read-out: LCV, % viability): 4%
- viability ([3]; mitogen study, 5.0 × 10^-5 μg/ml, read-out: LCV, % viability): 180%
- effect on PMA/CHO-mB7 stimulation of CD4+ cells [4]: blocks activation
